The values below come from patent US9783527B2, “Indazole ureas and method of use” (AbbVie Inc., priority 2014, dated 2017).

For one experiment, the target named is human Nav1.7 (Homo sapiens (Human), UniProt Q15858). The experiment can be described thus: FRET-based membrane potential assay, recombinant human sodium channel Nav1.7. It counts as cell-based. Particulars: HEK293 cells stably expressing recombinant human Nav1.7; depolarization with veratridine (EC80) + scorpion venom. The procedure, abridged:
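IC50 derived by four-parameter Hill fit of percent inhibition of depolarization, measured as peak F440-480/F565-625 ratio over baseline. Stable human Nav1.7 HEK293 cells, dye-loaded with CC2-DMPE and DiSBAC2(3)/VABSC-1 at room temperature, received compound 3 min ahead of veratridine (EC80) plus scorpion venom.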

The next experiment addresses human Nav1.8 (Homo sapiens (Human), UniProt Q9Y5Y9). The experiment can be described thus: FRET-based membrane potential assay, recombinant human sodium channel Nav1.8. It counts as cell-based. The settings on record: HEK293 cells stably expressing recombinant human Nav1.8; depolarization with veratridine (EC80) + scorpion venom. The essentials: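 HEK293 cells stably expressing Nav1.8 were loaded with CC2-DMPE/DiSBAC2(3) FRET voltage dyes. Compounds were added 3 min before depolarization with EC80 veratridine plus scorpion venom. The F440-480/F565-625 ratio was read on FLIPR; IC50 came from four-parameter Hill fits.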

Structures are written as SMILES.

Chain of human Nav1.8 (Q9Y5Y9 whole entry): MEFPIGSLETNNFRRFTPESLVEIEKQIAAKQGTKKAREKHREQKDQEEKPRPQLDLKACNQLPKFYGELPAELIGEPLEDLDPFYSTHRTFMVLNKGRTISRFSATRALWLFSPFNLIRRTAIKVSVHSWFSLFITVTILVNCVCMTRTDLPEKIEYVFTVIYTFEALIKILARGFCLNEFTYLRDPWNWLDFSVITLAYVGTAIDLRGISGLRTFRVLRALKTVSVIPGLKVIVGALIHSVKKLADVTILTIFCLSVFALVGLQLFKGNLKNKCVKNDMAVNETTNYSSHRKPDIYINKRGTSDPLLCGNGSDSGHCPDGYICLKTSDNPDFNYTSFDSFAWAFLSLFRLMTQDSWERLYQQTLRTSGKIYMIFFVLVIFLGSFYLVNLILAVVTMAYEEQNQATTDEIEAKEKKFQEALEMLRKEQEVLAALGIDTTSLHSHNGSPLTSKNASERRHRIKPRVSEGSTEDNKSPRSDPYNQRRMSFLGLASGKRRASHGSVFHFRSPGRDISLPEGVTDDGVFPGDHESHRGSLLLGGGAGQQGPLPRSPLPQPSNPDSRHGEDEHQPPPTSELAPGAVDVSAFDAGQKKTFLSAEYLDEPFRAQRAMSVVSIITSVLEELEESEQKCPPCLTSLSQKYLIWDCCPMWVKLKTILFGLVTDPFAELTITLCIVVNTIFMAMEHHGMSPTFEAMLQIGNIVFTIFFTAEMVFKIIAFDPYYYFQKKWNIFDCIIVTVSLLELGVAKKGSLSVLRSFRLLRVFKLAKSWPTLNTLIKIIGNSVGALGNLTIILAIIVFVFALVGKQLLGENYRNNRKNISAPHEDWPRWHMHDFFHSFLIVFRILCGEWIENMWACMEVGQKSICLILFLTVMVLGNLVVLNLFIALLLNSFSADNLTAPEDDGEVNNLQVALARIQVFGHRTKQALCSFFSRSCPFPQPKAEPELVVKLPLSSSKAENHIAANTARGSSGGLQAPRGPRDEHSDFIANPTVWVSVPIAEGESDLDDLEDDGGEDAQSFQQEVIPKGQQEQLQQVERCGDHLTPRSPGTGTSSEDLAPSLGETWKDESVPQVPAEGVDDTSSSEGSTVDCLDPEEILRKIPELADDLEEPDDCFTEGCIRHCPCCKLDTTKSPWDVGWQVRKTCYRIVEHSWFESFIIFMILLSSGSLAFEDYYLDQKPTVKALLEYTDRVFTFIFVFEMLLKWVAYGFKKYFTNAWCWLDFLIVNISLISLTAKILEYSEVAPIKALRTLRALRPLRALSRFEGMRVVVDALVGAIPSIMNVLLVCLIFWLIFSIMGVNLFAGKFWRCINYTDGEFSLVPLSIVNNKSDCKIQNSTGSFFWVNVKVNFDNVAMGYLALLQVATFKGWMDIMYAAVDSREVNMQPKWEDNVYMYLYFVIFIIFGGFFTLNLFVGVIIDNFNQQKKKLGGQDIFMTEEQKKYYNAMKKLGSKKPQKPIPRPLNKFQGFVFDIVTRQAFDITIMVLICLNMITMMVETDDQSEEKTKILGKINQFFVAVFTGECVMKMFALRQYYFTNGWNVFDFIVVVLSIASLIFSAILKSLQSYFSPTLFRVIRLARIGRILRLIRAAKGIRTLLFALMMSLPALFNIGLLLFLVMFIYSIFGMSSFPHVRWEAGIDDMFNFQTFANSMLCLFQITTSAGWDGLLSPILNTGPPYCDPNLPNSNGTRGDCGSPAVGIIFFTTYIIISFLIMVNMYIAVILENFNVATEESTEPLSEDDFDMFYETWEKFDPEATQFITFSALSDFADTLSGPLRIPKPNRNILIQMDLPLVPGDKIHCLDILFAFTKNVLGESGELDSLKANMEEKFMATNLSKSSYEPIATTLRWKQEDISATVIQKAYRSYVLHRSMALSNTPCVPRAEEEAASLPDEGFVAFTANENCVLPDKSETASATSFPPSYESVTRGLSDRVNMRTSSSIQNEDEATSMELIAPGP
Chain of human Nav1.7 (Q15858 whole entry): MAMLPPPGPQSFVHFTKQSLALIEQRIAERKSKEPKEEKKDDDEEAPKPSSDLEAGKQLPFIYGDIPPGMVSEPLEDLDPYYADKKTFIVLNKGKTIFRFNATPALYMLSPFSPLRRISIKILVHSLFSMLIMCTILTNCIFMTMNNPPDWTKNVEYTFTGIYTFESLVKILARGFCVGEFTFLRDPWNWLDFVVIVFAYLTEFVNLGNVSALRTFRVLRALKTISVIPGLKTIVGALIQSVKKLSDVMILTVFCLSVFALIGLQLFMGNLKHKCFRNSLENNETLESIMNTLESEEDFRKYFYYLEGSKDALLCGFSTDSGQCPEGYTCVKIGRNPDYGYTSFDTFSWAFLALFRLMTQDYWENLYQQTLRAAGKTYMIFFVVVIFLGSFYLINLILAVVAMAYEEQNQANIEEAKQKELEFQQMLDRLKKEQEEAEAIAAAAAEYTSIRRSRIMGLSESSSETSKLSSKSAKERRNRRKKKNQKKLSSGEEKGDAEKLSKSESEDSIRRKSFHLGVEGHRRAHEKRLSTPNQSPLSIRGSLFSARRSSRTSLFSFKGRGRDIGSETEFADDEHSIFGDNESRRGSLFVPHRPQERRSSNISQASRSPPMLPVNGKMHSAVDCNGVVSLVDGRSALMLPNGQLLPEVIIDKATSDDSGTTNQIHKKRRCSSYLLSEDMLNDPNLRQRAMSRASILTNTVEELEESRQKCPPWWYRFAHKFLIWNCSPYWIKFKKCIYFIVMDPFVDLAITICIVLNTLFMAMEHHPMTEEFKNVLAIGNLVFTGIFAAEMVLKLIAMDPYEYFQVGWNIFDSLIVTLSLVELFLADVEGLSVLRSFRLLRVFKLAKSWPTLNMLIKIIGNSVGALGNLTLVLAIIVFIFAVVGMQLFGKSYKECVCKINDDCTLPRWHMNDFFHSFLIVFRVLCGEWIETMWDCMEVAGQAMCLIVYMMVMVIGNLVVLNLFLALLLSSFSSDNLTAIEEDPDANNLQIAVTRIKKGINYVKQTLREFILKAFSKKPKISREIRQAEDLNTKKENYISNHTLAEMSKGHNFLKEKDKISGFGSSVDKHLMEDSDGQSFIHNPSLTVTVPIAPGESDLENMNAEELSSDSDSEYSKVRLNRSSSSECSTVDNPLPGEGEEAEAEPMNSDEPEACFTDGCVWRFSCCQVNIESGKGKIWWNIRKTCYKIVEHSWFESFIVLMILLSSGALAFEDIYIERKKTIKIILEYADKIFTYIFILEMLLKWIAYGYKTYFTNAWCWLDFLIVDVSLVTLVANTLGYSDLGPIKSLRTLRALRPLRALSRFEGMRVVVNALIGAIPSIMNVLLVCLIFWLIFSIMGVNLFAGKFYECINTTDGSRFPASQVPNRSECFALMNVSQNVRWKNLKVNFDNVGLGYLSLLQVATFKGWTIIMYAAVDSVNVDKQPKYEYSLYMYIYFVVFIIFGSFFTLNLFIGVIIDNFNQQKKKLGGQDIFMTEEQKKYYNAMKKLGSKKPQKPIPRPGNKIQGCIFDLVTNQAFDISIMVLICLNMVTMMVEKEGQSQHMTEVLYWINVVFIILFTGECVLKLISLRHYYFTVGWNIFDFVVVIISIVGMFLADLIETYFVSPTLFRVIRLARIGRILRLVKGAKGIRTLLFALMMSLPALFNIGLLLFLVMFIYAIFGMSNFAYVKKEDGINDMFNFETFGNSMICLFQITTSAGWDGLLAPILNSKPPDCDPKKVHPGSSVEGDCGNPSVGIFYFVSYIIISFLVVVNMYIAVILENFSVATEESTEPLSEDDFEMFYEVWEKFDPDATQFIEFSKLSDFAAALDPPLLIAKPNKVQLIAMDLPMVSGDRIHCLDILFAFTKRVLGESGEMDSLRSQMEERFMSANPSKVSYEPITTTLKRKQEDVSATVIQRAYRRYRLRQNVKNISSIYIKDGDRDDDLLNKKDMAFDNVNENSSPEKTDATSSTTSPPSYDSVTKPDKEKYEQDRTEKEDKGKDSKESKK

Broadly, the IC50 is the concentration needed to halve the response being measured. Turning to `O=C1CCCN(C(=O)CN2CCN(c3cccc4c3cnn4-c3ccccc3F)C2=O)CC1` [Example 313, 1-({3-[1-(2-fluorophenyl)-1H-indazol-4-yl]-2-oxoimidazolidin-1-yl}acetyl)azepan-4-one], the IC50 was found to be 2.72 µM at human Nav1.7 and 3.25 µM on human Nav1.8.

With `O=C(/C=C\N1CCN(c2cccc3c2cnn3-c2ccccc2F)C1=O)N1CC[C@H](F)C1` [Example 314, 1-[1-(2-fluorophenyl)-1H-indazol-4-yl]-3-{(1Z)-3-[(3S)-3-fluoropyrrolidin-1-yl]-3-oxoprop-1-en-1-yl}imidazolidin-2-one], the half-maximal inhibitory concentration (IC50) on human Nav1.7 stood at 3.25 µM; at human Nav1.8, 0.912 µM.

As for `CCNC(=O)CN1CCN(c2cccc3c2cnn3-c2ccccc2F)C1=O` [Example 315, N-ethyl-2-{3-[1-(2-fluorophenyl)-1H-indazol-4-yl]-2-oxoimidazolidin-1-yl}acetamide], the 50% inhibitory concentration (IC50) on human Nav1.7 came out at 2.96 µM; on human Nav1.8, 3.56 µM.

In the case of `O=C(CCN1CCN(c2cccc3c2cnn3-c2ccccc2F)C1=O)N1CCC[C@@H](F)C1` [Example 317, 1-[1-(2-fluorophenyl)-1H-indazol-4-yl]-3-{3-[(3R)-3-fluoropiperidin-1-yl]-3-oxopropyl}imidazolidin-2-one], the results for the IC50 at human Nav1.7 and at human Nav1.8 were 2.44 µM and 1.28 µM, respectively.

In the case of `O=C(CCN1CCN(c2cccc3c2cnn3-c2ccccc2F)C1=O)N1CCC[C@H](F)C1` [Example 318, 1-[1-(2-fluorophenyl)-1H-indazol-4-yl]-3-{3-[(3S)-3-fluoropiperidin-1-yl]-3-oxopropyl}imidazolidin-2-one], the half-inhibitory concentration (IC50) came to 3.14 µM at human Nav1.7 and 3.47 µM on human Nav1.8.

Consider `COC1CN(C(=O)CN2CCN(c3cccc4c3cnn4-c3ccccc3F)C2=O)C1` [Example 319, 1-[1-(2-fluorophenyl)-1H-indazol-4-yl]-3-[2-(3-methoxyazetidin-1-yl)-2-oxoethyl]imidazolidin-2-one], for which the IC50 at human Nav1.7 stood at 3.14 µM; on human Nav1.8 it was 3.02 µM.

For the molecule `O=C(CN1CCN(c2cccc3c2cnn3-c2ccccc2F)C1=O)NC1CCOCC1` [Example 320, 2-{3-[1-(2-fluorophenyl)-1H-indazol-4-yl]-2-oxoimidazolidin-1-yl}-N-(tetrahydro-2H-pyran-4-yl)acetamide], the figures for the IC50 at human Nav1.7 and on human Nav1.8 were 16.8 µM and 10.1 µM, respectively.

Consider `O=C(CN1CCN(c2cccc3c2cnn3-c2ccccc2F)C1=O)NC1COC1` [Example 321, 2-{3-[1-(2-fluorophenyl)-1H-indazol-4-yl]-2-oxoimidazolidin-1-yl}-N-(oxetan-3-yl)acetamide], for which the IC50 worked out at 5.79 µM on human Nav1.7 and 5.67 µM on human Nav1.8.

With `O=C(CN1CCN(c2cccc3c2cnn3-c2ccccc2F)C1=O)NC1CCC1` [Example 322, N-cyclobutyl-2-{3-[1-(2-fluorophenyl)-1H-indazol-4-yl]-2-oxoimidazolidin-1-yl}acetamide], the figures for the IC50 on human Nav1.7 and at human Nav1.8 were 0.973 µM and 1.89 µM, respectively.

Take `O=C(CN1CCN(c2cccc3c2cnn3-c2ccccc2F)C1=O)NC1CCCC1` [Example 323, N-cyclopentyl-2-{3-[1-(2-fluorophenyl)-1H-indazol-4-yl]-2-oxoimidazolidin-1-yl}acetamide]: the IC50 at human Nav1.7 stood at 1.46 µM; at human Nav1.8, 0.695 µM.

With `O=C(CN1CCN(c2cccc3c2cnn3-c2ccccc2F)C1=O)NC1CCCCC1` [Example 324, N-cyclohexyl-2-{3-[1-(2-fluorophenyl)-1H-indazol-4-yl]-2-oxoimidazolidin-1-yl}acetamide], the IC50 at human Nav1.7 was 1.41 µM; at human Nav1.8, 0.526 µM.

For `CC(=O)C1CN(C(=O)CN2CCN(c3cccc4c3cnn4-c3ccccc3F)C2=O)C1` [Example 325, 1-[2-(3-acetylazetidin-1-yl)-2-oxoethyl]-3-[1-(2-fluorophenyl)-1H-indazol-4-yl]imidazolidin-2-one], the concentration for half-maximal inhibition (IC50) amounted to 3.12 µM on human Nav1.7 and 3.86 µM on human Nav1.8.

On to `O=C(/C=C/N1CCN(c2cccc3c2cnn3-c2ccccc2F)C1=O)N1CC[C@H](F)C1` [Example 327, 1-[1-(2-fluorophenyl)-1H-indazol-4-yl]-3-{(1E)-3-[(3S)-3-fluoropyrrolidin-1-yl]-3-oxoprop-1-en-1-yl}imidazolidin-2-one], for which the results for the IC50 at human Nav1.7 and at human Nav1.8 were 2.89 µM and 0.678 µM, respectively.

Consider `O=C(CN1CCN(c2cccc3c2cnn3-c2ccccc2F)C1=O)N1CC(C(F)(F)F)C1` [Example 329, 1-[1-(2-fluorophenyl)-1H-indazol-4-yl]-3-{2-oxo-2-[3-(trifluoromethyl)azetidin-1-yl]ethyl}imidazolidin-2-one], for which the IC50 on human Nav1.7 was found to be 2.72 µM; at human Nav1.8, 3.13 µM.

For `CC(C)O[C@H]1CCCC[C@@H]1N1CCN(c2cccc3c2cnn3-c2ccccc2F)C1=O` [Example 331, 1-[1-(2-fluorophenyl)-1H-indazol-4-yl]-3-[(1S,2S)-2-isopropoxycyclohexyl]imidazolidin-2-one], the figures for the IC50 on human Nav1.7 and at human Nav1.8 were 1.44 µM and 3.65 µM, respectively.

As for `O=C(CN1CCN(c2cccc3c2cnn3-c2ccccc2F)C1=O)N[C@@H]1CCC[C@@H]1O` [Example 332, 2-{3-[1-(2-fluorophenyl)-1H-indazol-4-yl]-2-oxoimidazolidin-1-yl}-N-[(1R,2S)-2-hydroxycyclopentyl]acetamide], the IC50 at human Nav1.7 was determined as 5.1 µM; at human Nav1.8, 2.64 µM.

On to `O=C(CN1CCN(c2cccc3c2cnn3-c2ccccc2F)C1=O)N[C@H]1CCC[C@@H]1OCc1ccccc1` [Example 334, N-[(1S,2S)-2-(benzyloxy)cyclopentyl]-2-{3-[1-(2-fluorophenyl)-1H-indazol-4-yl]-2-oxoimidazolidin-1-yl}acetamide], for which the IC50 was 1.93 µM on human Nav1.7 and 0.657 µM on human Nav1.8.

Turning to `O=C(CN1CCN(c2cccc3c2cnn3-c2ccccc2F)C1=O)N[C@@H]1CCC[C@H]1OCc1ccccc1` [Example 335, N-[(1R,2R)-2-(benzyloxy)cyclopentyl]-2-{3-[1-(2-fluorophenyl)-1H-indazol-4-yl]-2-oxoimidazolidin-1-yl}acetamide], the IC50 at human Nav1.7 stood at 1.11 µM; on human Nav1.8, 0.501 µM.

With `CC(C)COC1COCC1N1CCN(c2cccc3c2cnn3-c2ccccc2F)C1=O` (centres unmarked) [Example 336, 1-[1-(2-fluorophenyl)-1H-indazol-4-yl]-3-(4-isobutoxytetrahydrofuran-3-yl)imidazolidin-2-one], the IC50 was 2.14 µM at human Nav1.7 and 0.867 µM on human Nav1.8.

Consider `CC(C)CO[C@H]1CCC[C@H]1NC(=O)CN1CCN(c2cccc3c2cnn3-c2ccccc2F)C1=O` [Example 337, 2-{3-[1-(2-fluorophenyl)-1H-indazol-4-yl]-2-oxoimidazolidin-1-yl}-N-[(1R,2S)-2-isobutoxycyclopentyl]acetamide], for which the IC50 on human Nav1.7 amounted to 2.24 µM; at human Nav1.8, 0.846 µM.

Take `O=C(CN1CCN(c2cccc3c2cnn3-c2ccc(Cl)cc2)C1=O)N1CC[C@H](F)C1` [Example 338, 1-[1-(4-chlorophenyl)-1H-indazol-4-yl]-3-{2-[(3S)-3-fluoropyrrolidin-1-yl]-2-oxoethyl}imidazolidin-2-one]: the values for the IC50 at human Nav1.7 and at human Nav1.8 were 1.06 µM and 2.62 µM, respectively.

As to `CC(C)(C)NC(=O)CN1CCN(c2cccc3c2cnn3-c2ccccc2F)C1=O` [Example 339, N-tert-butyl-2-{3-[1-(2-fluorophenyl)-1H-indazol-4-yl]-2-oxoimidazolidin-1-yl}acetamide], the IC50 at human Nav1.7 came out at 5.67 µM; on human Nav1.8, 2.67 µM.

For `O=C(CN1CCN(c2cccc3c2cnn3-c2ccccc2F)C1=O)NC1CCCC(F)(F)C1` (centres unmarked) [Example 340, N-(3,3-difluorocyclohexyl)-2-{3-[1-(2-fluorophenyl)-1H-indazol-4-yl]-2-oxoimidazolidin-1-yl}acetamide], the figures for the IC50 on human Nav1.7 and at human Nav1.8 were 2.64 µM and 0.637 µM, respectively.

For `O=C(CN1CCN(c2cccc3c2cnn3-c2ccccc2F)C1=O)NC1CCC(F)(F)C1` (centres unmarked) [Example 341, N-(3,3-difluorocyclopentyl)-2-{3-[1-(2-fluorophenyl)-1H-indazol-4-yl]-2-oxoimidazolidin-1-yl}acetamide], the 50% inhibitory concentration (IC50) on human Nav1.7 was 2.9 µM; on human Nav1.8 it was 0.991 µM.

With `O=C(CN1CCN(c2cccc3c2cnn3-c2ccccc2F)C1=O)N1C[C@H]2CCC[C@H]2C1` [Example 342, 1-[1-(2-fluorophenyl)-1H-indazol-4-yl]-3-{2-[(3aR,6aS)-hexahydrocyclopenta[c]pyrrol-2(1H)-yl]-2-oxoethyl}imidazolidin-2-one], the half-maximal inhibitory concentration (IC50) came out at 2.21 µM on human Nav1.7 and 0.746 µM on human Nav1.8.

As for `O=C(CN1CCN(c2cccc3c2cnn3-c2ccccc2F)C1=O)NCCC(F)(F)F` [Example 343, 2-{3-[1-(2-fluorophenyl)-1H-indazol-4-yl]-2-oxoimidazolidin-1-yl}-N-(3,3,3-trifluoropropyl)acetamide], the IC50 came out at 3.06 µM at human Nav1.7 and 1.27 µM at human Nav1.8.

Turning to `NC(=O)[C@@H](Cc1ccccc1)NC(=O)CN1CCN(c2cccc3c2cnn3-c2ccccc2F)C1=O` [Example 345, Nα-({3-[1-(2-fluorophenyl)-1H-indazol-4-yl]-2-oxoimidazolidin-1-yl}acetyl)-D-phenylalaninamide], the IC50 was 6.06 µM on human Nav1.7 and 1.78 µM at human Nav1.8.

With `CC(C)[C@H](NC(=O)CN1CCN(c2cccc3c2cnn3-c2ccccc2F)C1=O)C(=O)NC(C)(C)C` [Example 346, N-tert-butyl-N^2-({3-[1-(2-fluorophenyl)-1H-indazol-4-yl]-2-oxoimidazolidin-1-yl}acetyl)-L-valinamide], the IC50 on human Nav1.7 came out at 2.04 µM; on human Nav1.8 it was 0.96 µM.
